Source: patent US11007176B2, “Use of actin depolymerizing agents for the treatment of anxiety disorders” (priority 2019, dated 2021)
“Also recorded” adds a separate entry of the source.

Test system: Atf3^−/− mice
Assay: Trace fear conditioning (contextual and tone freezing tests) after intracranial infusion of cytochalasin D
Format: in vivo
Description: The habituation session was performed similarly to the DFC. The mice were divided into three groups (WT: n=15; Atf3^+/−: n=10; Atf3^−/−: n=16) and placed in the conditioning chamber for 15 min per day for 3 days. On Day 4, they underwent three trace fear conditioning trials: a 20-s tone (6000 Hz, 85 dB; CS), followed by a 10-s time interval, and then a 1-s foot shock (2 mA; US). Twenty-four hours later, the mice were placed in the same conditioning chamber for 6 min with neither tone nor foot shock for contextual testing. One hour after the contextual test, the mice were placed in a novel chamber for a tone test, which was performed as follows: 1 min with neither tone nor foot shock followed by a 6-min tone (6000 Hz, 85 dB). Freezing behaviors were recorded and analyzed using the FreezeScan software, and the freezing percentage was calculated using the aforementioned formula.
At 14 weeks of age, mice (Atf3^+/−: n=5, Atf3^−/−: n=9) were anesthetized using a mixture of ketamine, xylazine, and saline (0.55 mL/25 g) in accordance with the regulations of the Lab Animal Center, Tzu Chi University, Taiwan. Mouse heads were restrained in stereotaxic apparatus to ensure movement restriction during surgery. […] After surgery, the mice were placed in their respective cages to recover for 4 days and were then tested for TFC. Habituation was performed as described in the trace fear conditioning protocol. Using a Hamilton syringe, the actin depolymerizing agent cytochalasin D (Sigma-Aldrich, MO, USA, catalogue No. C8273), dissolved in dimethyl sulfoxide at a concentration of 25 μg/μL, was infused at a rate of 0.5 μL/min for 1 min immediately after fear conditioning on Day 4. Twenty-four hours later, contextual and tone testing was performed as previously described. A few mice were unable to perform the tasks because of loss of mobility after surgery; the data for these mice are not included. Mice were transcardially perfused, and their brains were incubated in Golgi-Cox staining solution.

C=C1[C@@H](C)[C@H]2[C@H](Cc3ccccc3)NC(=O)[C@]23[C@H](OC(C)=O)/C=C/[C@@](C)(O)C(=O)[C@@H](C)C/C=C/[C@H]3[C@@H]1O [cytochalasin D]
Freezing percentage to context (Atf3^−/− mice, cytochalasin D 25 μg/μL in DMSO infused at 0.5 μL/min for 1 min immediately after trace fear conditioning, contextual test 24 h later, compared with Atf3^−/− mice treated with saline (FIG. 5G)): significantly lower | Freezing percentage to tone (Atf3^−/− mice, cytochalasin D 25 μg/μL in DMSO infused at 0.5 μL/min for 1 min immediately after trace fear conditioning, tone test 24 h later, compared with Atf3^−/− mice treated with saline (FIG. 5H)): significantly lower | Freezing behavior (fear phenotype) of Atf3^−/− mice (hippocampal / intracranial infusion of cytochalasin D, summary statement, context or tone test not specified): reversed the phenotype of Atf3^−/− mice; also recorded: reduced the freezing behavior of the Atf3^−/− mice to a wild-type mouse level
